Measurements published in patent US20110275573A1, “TISSUE ADHESIVE” (METAMOREFIX LTD., priority 2008, published 2011).
“Also recorded” adds a separate entry of the source.

What was measured:
[1] = tested on: human foreskin fibroblasts (FF1); test: Cell attachment assay in monolayers (peptide-coated Sepharose beads); assay type: cell-based
Method: (§1) A peptide solution in coupling buffer prepared as above was immediately added to the activated Sepharose beads Sepharose beads were used to fixate the peptides for all in-vitro assays in the column to a final binding of 6 mg peptide per ml gel. The column was closed and shaken overnight at 4° C. very gently to avoid mechanical breakage of the beads. The bottom cap of the column was removed and the solution of ligand/buffer was collected as the Sepharose Beads settled on the filter. The OD280 of the collected buffer was checked to determine the concentration of uncoupled peptide. The gel was washed/aspirated with 5 volumes (˜2 ml) of coupling buffer and gently mixed. Any remaining active groups on the gel were blocked with blocking buffer for 2 hours at room temperature or overnight at 4° C. The Sepharose beads gel with peptides was then washed by 2 cycles each of 5 gel volumes of: • a. 0.1 M Acetate buffer • b. Coupling buffer • c. Storing buffer: azide-coupling buffer: coupling buffer containing 0.1% NaN3 (final concentration)
(§2) The tested peptides (Table 1) were coupled to Sepharose Beads at two concentrations: 6 and 12 mg/ml Sepharose Beads. Sepharose Beads that underwent the coupling procedure without peptide addition (“naked Sepharose Beads”) served as a negative control (referred to herein as “Sepharose Beads-blank”). A cell binding assay was performed with 2 normal cell types: bovine aortal endothelial cells (BAEC) and human foreskin fibroblasts (FF1). Sepharose beads were added to 12 well culture plates with sub-confluent monolayer of the cultured cells (100-300 beads were added to each well). The fraction of Sepharose beads attached to the monolayer was determined at different times.

[2] = tested on: bovine aortal endothelial cells (BAEC); test: as above; assay type: cell-based; conditions: for cell binding activity (BAEC), in words: 6 mg/ml
Method: as §1, §2

[3] = FIG. 3a, concentration not given

GGWTVFQRRMDGSVDFYRK [M-Fic-K]
cell binding activity (FF1), in words ([1]; 6 mg peptide/ml): dramatic change in activity

GGWTVFQRRVDGSVDFYRK [M-Fic]
cell binding activity (FF1), in words ([1]; 6 mg peptide/ml): initially inferior to the positive control; also recorded: retains its activity
cell binding activity (FF1), in words ([1]; 6 mg peptide/ml, listed as M-fic): retain most of its activity
time to reach saturated cell binding ([1]; 6 mg/ml, FF1): ≤ 24 h
Nomarsky optic microscopy of peptide coated beads attached to FF1 ([1]; after 3 days of incubation, x100, FIG. 10): aggregates of cells and beads formed
time to saturated attachment ([1]; conclusions, cell type and concentration not stated): 72 h
binding rate of BAEC at the lower concentration ([2]; 6 mg/ml compared with 12 mg/ml, FIG. 9): slight decrease
Nomarsky optic microscopy of peptide coated beads attached to endothelial cells (BAEC) ([2]; 3 weeks of incubation, x100, FIG. 12): formation of small tubes
activity in forming bead-cell aggregates and tube like structures ([2]; longer incubation times, FIGS. 10-12): highest activity

KGYKYSYKGGWTVFQRRMDGSVDFYR [C-M-Fic2]
cell binding of FF1 reached [1, 3]: 100%
kinetic profile of cell binding of FF1 [1, 3]: good kinetic profile of cell binding (fast attachment)

KGYKYSYKGGWTVFQRRMDGSVDFYRK [C-M-Fic2-K, C-M-Fic2 with the addition of a lysine group]
cell binding of FF1 reached [1, 3]: 100%
kinetic profile of cell binding of FF1 [1, 3]: good kinetic profile of cell binding (fast attachment)

KGYKYSYKVSEMKFQRRMDGSVDFYRK [C-M-Fic-a-K]
rate/kinetics of cell binding of FF1 compared with positive control PreC ([1]; 6 mg peptide/ml, FIG. 1, FIG. 2): accelerated the kinetics of cell binding

KGYKYSYKVSEMKVRPAK [C-Fic-a-K]
cell binding of FF1 reached ([1]; 6 mg peptide/ml, FIG. 1): 100%

KGYNYSYKSEMKVRPAK [C-Fic, b25 prints …]
cell binding activity (FF1), in words ([1]; 6 mg peptide/ml): no reactivity
cell binding activity (FF1), in words ([1]; 6 mg peptide/ml, listed as C-fic): did not attach; also recorded: looses its activity; also recorded: inactive
cell binding of FF1 reached ([1]; 12 mg peptide/ml, after 150 hours (FIG. 4b)): 100%
extent of cell binding ([2]; 6 mg peptide/ml, after 96 hours of incubation, cell type not stated (FF1 or BAEC)): about 30%
cell binding activity (BAEC), in words [2]: completely looses reactivity
cell binding activity (BAEC), in words ([2]; listed as C-fic): did not attach; also recorded: some activity

KTRWYSMKKTTMKIIPFNR [PreC, positive control peptide, reference compound]
cell binding of FF1 reached ([1]; 6 mg peptide/ml, FIG. 1): 100%
